Data from paper PMC2891523 (The Journal of organic chemistry, 2010).

Target: T1, α-TTP (tocopherol transfer protein) (Homo sapiens, UniProt P49638)
T1 sequence (P49638 1-278): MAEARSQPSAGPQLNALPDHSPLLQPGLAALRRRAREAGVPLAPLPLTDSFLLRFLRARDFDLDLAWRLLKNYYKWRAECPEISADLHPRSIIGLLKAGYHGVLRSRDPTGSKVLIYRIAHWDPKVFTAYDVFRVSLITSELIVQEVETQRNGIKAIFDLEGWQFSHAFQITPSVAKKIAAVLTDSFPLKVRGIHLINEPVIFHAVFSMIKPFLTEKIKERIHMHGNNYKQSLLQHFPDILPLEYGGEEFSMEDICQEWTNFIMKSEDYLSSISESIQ
Assay: fluorescence titration of purified α-TTP, one-site binding fit

Kd: 232 ± 10 nM
SMILES: CC1=CC(C)=[N+]2C1=Cc1ccc(CCCCCC[C@]3(C)CCc4c(C)c(O)c(C)c(C)c4O3)n1[B-]2(F)F [10a, (R)-5,5-difluoro-7-(6-(6-hydroxy-2,5,7,8-tetramethylchroman-2-yl)hexyl)-1,3-dimethyl-5H-dipyrrolo[1,2-c:1′,2′-f][1,3,2]diazaborinin-4-ium-5-uide]
